Usually IC50 stands for the concentration at which inhibition is half-maximal.

The results in this text go back to patent publication US20160282364A1, “ASSAY FOR INSULIN-DEGRADING ENZYME (IDE) INHIBITORS” (PRESIDENT AND FELLOWS OF HARVARD COLLEGE, priority 2013, published 2016).

Data set [1] is described as follows: Plasma pharmacokinetics by isotope dilution mass spectrometry. Format: in vivo, mouse. The following applies: 80 mg/kg. The method, then:
Purified macrocycle inhibitors were dissolved in DMSO-d6 ( 200 to 250 mg/mL stock solutions). […] The inhibitor concentration was calculated using the integral of the CH2Cl2 singlet (δ 5.76 ppm, 2H)^57, which appears in an uncluttered region of these spectra^51,58. For injectable formulations (10 mL/kg i.p. injection volume), the macrocycle inhibitor solution in DMSO-d6 (200-250 mg/mL, based on free-base molecular weight) was combined with 1:20 w/w Captisol® powder (CyDex)^59. The resulting slurry was supplemented with DMSO-d6 to make up to 5% of the final formulation volume, mixed thoroughly and dissolved with sterile saline solution (0.9% NaCl). Vehicle controls were identically formulated with 5% DMSO-d6 and equal amount of Captisol®. The formulated solutions of inhibitor were clear with no visible particles, and were stored overnight at 4° C. prior to injection. Stable isotope dilution LC-MS, pharmacokinetics, and tissue distribution measurements. […] Tissue samples ( 100 mg) fromb 6K-treated mice and vehicle controls were weighed and disrupted in Dounce homogenizers with PBS buffer (0.5 mL/100 mg sample), supplemented with 5 μM heavy-6bK and protease inhibitor cocktail (1 tablet/50 mL PBS, Roche diagnostics). The lysate was incubated on ice for 30 min, sonicated 5 min and centrifuged at 13,000 g for 5 min. The bulk of supernatant proteins were precipitated by denaturation at 95° C. for 5 min, removed by centrifugation.

The target in another data set is T1, hIDE F202L (Homo sapiens, UniProt P14735, F202L).
T1 construct: The reported N-His6-tagged human IDE42-1019 construct; made in house; host or cells: E. coli Rosetta 2 (DE3) pLysS
T1 sequence (P14735 42-1019 F202L): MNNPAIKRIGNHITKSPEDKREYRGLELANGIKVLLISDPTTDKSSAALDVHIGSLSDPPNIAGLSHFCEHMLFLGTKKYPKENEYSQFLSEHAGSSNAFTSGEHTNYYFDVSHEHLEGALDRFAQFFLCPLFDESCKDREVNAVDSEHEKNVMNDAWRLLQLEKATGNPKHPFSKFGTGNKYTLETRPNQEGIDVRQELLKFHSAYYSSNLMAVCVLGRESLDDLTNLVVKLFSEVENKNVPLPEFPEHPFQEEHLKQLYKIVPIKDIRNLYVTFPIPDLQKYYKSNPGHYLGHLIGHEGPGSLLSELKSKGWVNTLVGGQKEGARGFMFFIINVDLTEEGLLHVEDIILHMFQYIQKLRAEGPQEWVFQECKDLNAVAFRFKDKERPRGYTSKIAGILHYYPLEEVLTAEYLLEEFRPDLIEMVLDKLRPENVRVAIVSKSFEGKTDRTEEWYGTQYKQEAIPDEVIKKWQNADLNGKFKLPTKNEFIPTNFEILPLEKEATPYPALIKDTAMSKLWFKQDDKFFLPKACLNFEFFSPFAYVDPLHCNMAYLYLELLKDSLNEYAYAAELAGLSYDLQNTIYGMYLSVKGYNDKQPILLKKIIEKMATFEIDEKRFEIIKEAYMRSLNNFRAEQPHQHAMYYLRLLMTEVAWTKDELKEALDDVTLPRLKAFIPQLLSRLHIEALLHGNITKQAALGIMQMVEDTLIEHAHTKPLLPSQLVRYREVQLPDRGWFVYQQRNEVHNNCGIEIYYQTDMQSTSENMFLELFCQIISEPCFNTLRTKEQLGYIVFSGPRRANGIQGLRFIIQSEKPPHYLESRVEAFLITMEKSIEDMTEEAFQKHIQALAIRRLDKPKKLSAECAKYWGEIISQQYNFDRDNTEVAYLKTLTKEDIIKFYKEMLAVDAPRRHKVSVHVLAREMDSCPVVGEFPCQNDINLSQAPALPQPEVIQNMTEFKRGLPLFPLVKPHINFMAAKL
Kind of data set: Small molecule-enzyme mutant complementation study. The settings on record: F202L vs hIDE WT, batch 1. The class given is biochemical. The source says:
(§1) Protease assays with fluorogenic peptide substrates. […] All assay data points were obtained in duplicate.
(§2) Site-directed mutagenesis, expression, and purification of human IDE. The reported N-His6-tagged human IDE42-1019 construct was introduced in the expression plasmid pTrcHis-A (Invitrogen) using primers for uracil-specific excision reactions (USER) by Taq (NEB) and Pfu polymerases (PfuTurbo CX®, Agilent). The IDE gene was amplified with the primers 5′-[…]-dU-[…] and 5′-[…] G-dU-[…] (underlined sequences represent overhangs, and italics highlight the PCR priming sequence). Similarly, the pTrcHis-A vector was amplified for USER cloning with the primers 5′-[…] TGA-dU-[…] CCC and 5′-[…]-dU-[…]. Mutant IDE constructs were generated by amplifying the full vector construct with USER cloning primers introducing a mutant overhang (Table 5).
(§3) All PCR products were purified on microcentrifuge membrane columns (MinElute®, Qiagen) and quantified by UV absorbance (NanoDrop). Each fragment (0.2 pmol) was combined in a 10 μL reaction mixture containing 20 units DpnI (NEB), 0.75 units of USER mix (Endonuclease VIII and Uracil-DNA Glycosylase, NEB), 20 mM Tris-acetate, 50 mM potassium acetate, 10 mM magnesium acetate, 1 mM dithiothreitol at pH 7.9 (1× NEBuffer 4). The reactions were incubated at 37° C. for 45 min, followed by heating to 80° C. and slow cooling to 30° C. (0.2° C./s). The hybridized constructs were directly used for heat-shock transformation of chemically competent NEB turbo E. coli cells according to the manufacturer's instructions. Transformants were selected on carbenicillin LB agar, and isolated colonies were cultured overnight in 2 mL LB.
(§4) The plasmid was extracted using a microcentrifuge membrane column kit (Miniprep®, Qiagen), and the sequence of genes and vector junctions were confirmed by Sanger sequencing (Table 6). The plasmid constructs were transformed by heat-shock into chemically-competent expression strain Rosetta 2 (DE3) pLysS E. coli cells (EMD Millipore), and selected on carbenicillin/chloramphenicol LB agar. Cells transformed with IDE pTrcHis A constructs were cultured overnight at 37° C. in 2 XYT media (31 g in 1 L) containing 100 μg/mL ampicillin and 34 μg/mL chloramphenicol. Expression of His6-tagged IDE proteins was induced when the culture measured OD600 ˜0.6 by addition of isopropyl-β-D-1-thiogalactopyranoside (IPTG) to 1 mM final concentration, incubated overnight at 37° C., followed by centrifugation at 10,000 g for 30 min at 4° C.
(§5) Recombinant His6-tagged proteins were purified by Ni(II)-affinity chromatography (IMAC sepharose beads, GE Healthcare®) according to the manufacturer's instructions. The cell pellets were resuspended in pH 8.0 buffer containing 50 mM phosphate, 300 mM NaCl, 10 mM imidazole, 1% Triton X-100 and 1 mM tris(2-carboxyethyl)phosphine hydrochloride (TCEP), and were lysed by probe sonication for 4 min at 4° C., followed by clearing of cell debris by centrifugation at 10,000 g for 25 min at 4° C. The supernatant was incubated with Ni(II)-doped IMAC resin (2 mL) for 3 h at 4° C. The resin was washed twice with the cell resuspension/lysis buffer, and three times with pH 8.0 buffer containing 50 mM phosphate, 300 mM NaCl,50 mM imidazole and 1 mM TCEP. Elution was performed in 2 mL aliquots by raising the imidazole concentration to 250 mM and subsequently to 500 mM in the previous buffer. The fractions were combined and the buffer was exchanged to the recommended IDE buffer (R&D) using spin columns with 100 KDa molecular weight cut off membranes (Millipore). Protein yields were typically ˜10 μg/L, and >90% purity based on gel electrophoresis analysis (Coomassie stained).

The target of a further data set is T2, hIDE F202R (Homo sapiens, UniProt P14735, F202R).
T2 construct: The reported N-His6-tagged human IDE42-1019 construct; made in house; host or cells: E. coli Rosetta 2 (DE3) pLysS
T2 sequence (P14735 42-1019 F202R): as the sequence (P14735 42-1019 F202L) above, with L161R counted along it
In words: Small molecule-enzyme mutant complementation study. The class given is biochemical. The following applies: F202R vs hIDE WT, batch 2.
Excerpt: as §1, §2, §3, §4, §5

For a further data set, the target named is T3, hIDE A198T (Homo sapiens, UniProt P14735, A198T).
T3 construct: The reported N-His6-tagged human IDE42-1019 construct; made in house; host or cells: E. coli Rosetta 2 (DE3) pLysS
T3 sequence (P14735 42-1019 A198T): as the sequence (P14735 42-1019 F202L) above, with A157T, L161F counted along it
In words: Small molecule-enzyme mutant complementation study. Format: biochemical. The settings on record: A198T vs hIDE WT, batch 2.
Excerpt: as §1, §2, §3, §4, §5

For a further data set, the target named is IDE (Homo sapiens, UniProt P14735). In words: Protease assay with fluorogenic peptide substrate Mca-[…](Dnp)-OH. Set-up: recombinant human IDE42-1019 (R&D Systems); purchased R&D Systems. The class given is biochemical. As to the method:
All data points and error bars represent mean±SEM. Significance tests were performed using two-tail Student's t-test, and significance levels shown in the figures are p<0.05 (*) or p<0.01 (**) versus the vehicle-only control group. The in vitro selection of the DNA-templated macrocycle libraryl^16,17 used 20 μg His6-tagged mouse IDE immobilized on cobalt magnetic beads (Dynabeads, Invitrogen). IDE proteolytic activity was assayed with fluorogenic peptide Mca-[…](Dnp)-OH (R&D). IDE inhibition was confirmed using an anti-insulin antibody time-resolved FRET assay (Cysbio), and using an LCMS assay for CGRP cleavage fragments CGRP1-17 and CGRP18-37 in plasma^18. […] Protease assays with fluorogenic peptide substrates. […] (R&D). All assay data points were obtained in duplicate.

Chain of IDE (P14735 42-1019): as the sequence (P14735 42-1019 F202L) above, with L161F counted along it

`NCCCC[C@@H]1NC(=O)/C=C/C(=O)N[C@H](C(N)=O)CCCCNC(=O)[C@@H](Cc2ccc(C(=O)c3ccccc3)cc2)NC(=O)[C@H](CC2CCCCC2)NC1=O` [Compound 6bK]: the “plasma concentration relative to IC50 for mouse IDE” value in data set [1] (30 min post-injection) is given as approximately 1000 fold. Moreover, in data set [1] (mouse, in vivo, ip), the “time at which plasma levels were detectable post-injection” value was 5 min and the “time plasma levels maintained at a detectable level” value is on record as “at least 4 h”.
With `NC(=O)CCC1NC(=O)C=CC(=O)NC(C(N)=O)CCCCNC(=O)C(Cc2ccc(C(=O)c3ccccc3)cc2)NC(=O)C(CC2CCCCC2)NC1=O` (stereo not shown) [Compound 6b], the IC50 shift at hIDE F202L came to 1.7 fold; at hIDE F202R, 3.7 fold; on hIDE A198T, 16 fold. The IC50 at IDE was 60 nM.
